Measured values reported in patent publication US9273041B2, “Compounds for the treatment of dyslipidemia and related diseases” (Cadila Healthcare Limited, priority 2012, dated 2016).

Target: PCSK9 (Homo sapiens, UniProt Q8NBP7)
Assay: PCSK9-LDLR in vitro binding assay (solid phase, ELISA readout)
Conditions: read-out: % Inhibition PCSK 9; for inhibition at 10 µM: test compound concentration 10 μM; for inhibition at 100 µM: test compound concentration 100 μM; for inhibition at 1 µM: test compound concentration 1 μM
Experimental: The PCSK9-LDLR in vitro binding Assay is a quantitative solid phase binding assay between PCSK9 and recombinant LDLR. Plates were pre-coated with a recombinant LDLR-AB domain, which binds PCSK9. Test compound at different concentration was added to the PCSK9 and added to LDLR immobilized on the wells. The amount of bound PCSK9 is measured by binding it with biotinylated anti-His-tag monoclonal antibody, followed by binding with horseradish peroxidase conjugated streptavidin substrate. The color was quantified by ELISA reader at […] which reflects the relative amount of PCSK9 that binds to LDLR in presence and absence of the inhibitor. EC50 values were calculated by nonlinear regression analysis using graph pad prism software. Each concentration point represents values in duplicates.

Sequence of PCSK9 (Q8NBP7 153-692): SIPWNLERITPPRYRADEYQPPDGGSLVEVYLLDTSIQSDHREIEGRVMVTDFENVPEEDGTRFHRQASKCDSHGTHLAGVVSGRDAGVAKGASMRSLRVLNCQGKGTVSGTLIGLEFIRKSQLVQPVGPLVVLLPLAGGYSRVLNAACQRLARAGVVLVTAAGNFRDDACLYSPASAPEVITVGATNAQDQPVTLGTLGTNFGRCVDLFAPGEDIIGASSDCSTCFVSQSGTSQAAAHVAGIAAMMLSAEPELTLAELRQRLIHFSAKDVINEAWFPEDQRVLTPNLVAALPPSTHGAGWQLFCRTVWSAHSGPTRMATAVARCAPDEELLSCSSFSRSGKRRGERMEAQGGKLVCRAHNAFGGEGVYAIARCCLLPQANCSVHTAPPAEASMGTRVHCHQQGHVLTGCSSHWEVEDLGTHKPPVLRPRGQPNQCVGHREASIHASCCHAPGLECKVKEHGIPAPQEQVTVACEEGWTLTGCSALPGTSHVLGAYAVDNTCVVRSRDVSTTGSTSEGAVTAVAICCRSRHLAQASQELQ
Sequence of PCSK9 (Q8NBP7 31-152 partner limits assumed): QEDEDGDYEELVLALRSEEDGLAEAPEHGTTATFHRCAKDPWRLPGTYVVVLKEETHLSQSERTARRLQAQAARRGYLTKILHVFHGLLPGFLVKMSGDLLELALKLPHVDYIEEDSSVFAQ

SMILES: Cc1c(-c2ccc(OCC(=O)NCC3CCOCC3)cc2)noc1-c1ccccc1 [Example 1, 2-(4-(4-Methyl-5-phenylisoxazol-3-yl)phenoxy)-N-((tetrahydro-2H-pyran-4-yl)methyl)acetamide]
- inhibition at 10 µM: 42%
- inhibition at 100 µM: 68%

SMILES: Cc1onc(-c2ccc(OCC(=O)NCC3CCOCC3)cc2)c1-c1ccccc1 [Example 2, 2-(4-(5-methyl-4-phenylisoxazol-3-yl)phenoxy)-N-((tetrahydro-2H-pyran-4-yl)methyl)acetamide]
- inhibition at 10 µM: 9%
- inhibition at 100 µM: 33%

SMILES: Cc1c(-c2ccc(OCC(=O)NCC3CCOCC3)cc2)noc1-c1ccc(F)cc1 [Example 3, 2-(4-(5-(4-fluorophenyl)-4-methylisoxazol-3-yl)phenoxy)-N-((tetrahydro-2H-pyran-4-yl)methyl)acetamide]
- inhibition at 1 µM: 33%
- inhibition at 10 µM: 35%
- inhibition at 100 µM: 65%

SMILES: Cc1c(-c2ccc(OCC(=O)NCC3CCOCC3)cc2)noc1-c1ccc(Cl)cc1 [Example 4, 2-(4-(5-(4-chlorophenyl)-4-methylisoxazol-3-yl)phenoxy)-N-((tetrahydro-2H-pyran-4-yl)methyl)acetamide]
- inhibition at 10 µM: 36%
- inhibition at 100 µM: 29%

SMILES: Cc1c(-c2ccc(OCC(=O)NCC3CCOCC3)cc2)noc1-c1ccc(C(F)(F)F)cc1 [Example 5, 2-(4-(4-methyl-5-(4-(trifluoromethyl)phenyl)isoxazol-3-yl)phenoxy)-N-((tetrahydro-2H-pyran-4-yl)methyl)acetamide]
- inhibition at 1 µM: 49%
- inhibition at 10 µM: 67%
- inhibition at 100 µM: 71%

SMILES: Cc1ccc(-c2onc(-c3ccc(OCC(=O)NCC4CCOCC4)cc3)c2C)cc1 [Example 6, 2-(4-(4-methyl-5-(p-tolyl)isoxazol-3-yl)phenoxy)-N-((tetrahydro-2H-pyran-4-yl)methyl)acetamide]
- inhibition at 1 µM: 12%
- inhibition at 10 µM: 17%
- inhibition at 100 µM: 34%

SMILES: Cc1c(-c2ccc(OCC(=O)NCC3CCOCC3)cc2)nsc1-c1ccccc1 [Example 7, 2-(4-(4-methyl-5-phenylisothiazol-3-yl)phenoxy)-N-((tetrahydro-2H-pyran-4-yl)methyl)acetamide]
- inhibition at 1 µM: 22%
- inhibition at 10 µM: 22%
- inhibition at 100 µM: 55%

SMILES: COc1cc(-c2ccc(OCC(=O)NCC3CCOCC3)cc2)nn1-c1ccc(C(F)(F)F)cc1 [Example 8, 2-(4-(5-methoxy-1-(4-(trifluoromethyl)phenyl)-1H-pyrazol-3-yl)phenoxy)-N-((tetrahydro-2H-pyran-4-yl)methyl)acetamide]
- inhibition at 10 µM: 73%
- inhibition at 100 µM: 58%

SMILES: COc1cc(-c2ccc(OCC(=O)NCC3CCOCC3)cc2)nn1-c1ccc(F)cc1 [Example 9, 2-(4-(1-(4-fluorophenyl)-5-methoxy-1H-pyrazol-3-yl)phenoxy)-N-((tetrahydro-2H-pyran-4-yl)methyl)acetamide]
- inhibition at 1 µM: 37%
- inhibition at 10 µM: 41%
- inhibition at 100 µM: 64%

SMILES: COc1cc(-c2ccc(OCC(=O)NCC3CCOCC3)cc2)nn1-c1ccccc1 [Example 10, 2-(4-(5-methoxy-1-phenyl-1H-pyrazol-3-yl)phenoxy)-N-((tetrahydro-2H-pyran-4-yl)methyl)acetamide]
- inhibition at 1 µM: 33%
- inhibition at 10 µM: 40%
- inhibition at 100 µM: 56%

SMILES: Cc1nc(-c2ccccc2)sc1-c1ccc(OCC(=O)NCC2CCOCC2)cc1 [Example 11, 2-(4-(4-methyl-2-phenylthiazol-5-yl)phenoxy)-N-((tetrahydro-2H-pyran-4-yl)methyl)acetamide]
- inhibition at 1 µM: 30%
- inhibition at 10 µM: 44%
- inhibition at 100 µM: 53%

SMILES: Cc1nc(-c2ccc(C(F)(F)F)cc2)sc1-c1ccc(OCC(=O)NCC2CCOCC2)cc1 [Example 12, 2-(4-(4-methyl-2-(4-(trifluoromethyl)phenyl)thiazol-5-yl)phenoxy)-N-((tetrahydro-2H-pyran-4-yl)methyl)acetamide]
- inhibition at 10 µM: 33%
- inhibition at 100 µM: 36%

SMILES: Cc1nc(-c2ccc(F)cc2)sc1-c1ccc(OCC(=O)NCC2CCOCC2)cc1 [Example 13, 2-(4-(2-(4-fluorophenyl)-4-methylthiazol-5-yl)phenoxy)-N-((tetrahydro-2H-pyran-4-yl)methyl)acetamide]
- inhibition at 1 µM: 17%
- inhibition at 10 µM: 30%
- inhibition at 100 µM: 78%

SMILES: Cc1oc(-c2ccccc2)nc1-c1ccc(OCC(=O)NCC2CCOCC2)cc1 [Example 17, 2-(4-(5-methyl-2-phenyloxazol-4-yl)phenoxy)-N-((tetrahydro-2H-pyran-4-yl)methyl)acetamide]
- inhibition at 1 µM: 40%
- inhibition at 10 µM: 38%
- inhibition at 100 µM: 63%

SMILES: Cc1oc(-c2ccc(C(F)(F)F)cc2)nc1-c1ccc(OCC(=O)NCC2CCOCC2)cc1 [Example 18, 2-(4-(5-methyl-2-(4-(trifluoromethyl)phenyl)oxazol-4-yl)phenoxy)-N-((tetrahydro-2H-pyran-4-yl)methyl)acetamide]
- inhibition at 10 µM: 53%

SMILES: Cc1oc(-c2ccc(F)cc2)nc1-c1ccc(OCC(=O)NCC2CCOCC2)cc1 [Example 19, 2-(4-(2-(4-fluorophenyl)-5-methyloxazol-4-yl)phenoxy)-N-((tetrahydro-2H-pyran-4-yl)methyl)acetamide]
- inhibition at 10 µM: 24%
- inhibition at 100 µM: 50%

SMILES: Cc1ccc(-c2nc(-c3ccc(OCC(=O)NCC4CCOCC4)cc3)c(C)o2)cc1 [Example 22, 2-(4-(5-methyl-2-(p-tolyl)oxazol-4-yl)phenoxy)-N-((tetrahydro-2H-pyran-4-yl)methyl)acetamide]
- inhibition at 1 µM: 27%
- inhibition at 10 µM: 30%
- inhibition at 100 µM: 54%

SMILES: Cc1oc(-c2cccnc2)nc1-c1ccc(OCC(=O)NCC2CCOCC2)cc1 [Example 24, 2-(4-(5-methyl-2-(pyridin-3-yl)oxazol-4-yl)phenoxy)-N-((tetrahydro-2H-pyran-4-yl)methyl)acetamide]
- inhibition at 1 µM: 49%
- inhibition at 10 µM: 76%
- inhibition at 100 µM: 35%

SMILES: O=C(COc1ccc(-c2noc(-c3ccc(C(F)(F)F)cc3)n2)cc1)NCC1CCOCC1 [Example 25, N-((tetrahydro-2H-pyran-4-yl)methyl)-2-(4-(5-(4-(trifluoromethyl)phenyl)-1,2,4-oxadiazol-3-yl)phenoxy)acetamide]
- inhibition at 1 µM: 37%
- inhibition at 10 µM: 50%
- inhibition at 100 µM: 64%

SMILES: O=C(COc1ccc(-c2nnc(-c3ccc(F)cc3)o2)cc1)NCC1CCOCC1 [Example 30, 2-(4-(5-(4-fluorophenyl)-1,3,4-oxadiazol-2-yl)phenoxy)-N-((tetrahydro-2H-pyran-4-yl)methyl)acetamide]
- inhibition at 1 µM: 19%
- inhibition at 10 µM: 20%
- inhibition at 100 µM: 32%

SMILES: O=C(COc1ccc(-c2nnc(-c3ccc(C(F)(F)F)cc3)o2)cc1)NCC1CCOCC1 [Example 31, N-((tetrahydro-2H-pyran-4-yl)methyl)-2-(4-(5-(4-(trifluoromethyl)phenyl)-1,3,4-oxadiazol-2-yl)phenoxy)acetamide]
- inhibition at 1 µM: 25%
- inhibition at 10 µM: 34%
- inhibition at 100 µM: 36%

SMILES: COc1ccc(-c2nnc(-c3ccc(OCC(=O)NCC4CCOCC4)cc3)o2)cc1 [Example 32, 2-(4-(5-(4-methoxyphenyl)-1,3,4-oxadiazol-2-yl)phenoxy)-N-((tetrahydro-2H-pyran-4-yl)methyl)acetamide]
- inhibition at 1 µM: 13%
- inhibition at 10 µM: 23%
- inhibition at 100 µM: 30%

SMILES: O=C(COc1ccc(C2CN(c3ccc(F)cc3)C(=O)O2)cc1)NCC1CCOCC1 (stereo not drawn) [Example 35, 2-(4-(3-(4-fluorophenyl)-2-oxooxazolidin-5-yl)phenoxy)-N-((tetrahydro-2H-pyran-4-yl)methyl)acetamide]
- inhibition at 1 µM: 14%
- inhibition at 10 µM: 54%
- inhibition at 100 µM: 61%

SMILES: COc1ccc(N2CC(c3ccc(OCC(=O)NCC4CCOCC4)cc3)OC2=O)cc1 (stereo not drawn) [Example 36, 2-(4-(3-(4-methoxyphenyl)-2-oxooxazolidin-5-yl)phenoxy)-N-((tetrahydro-2H-pyran-4-yl)methyl)acetamide]
- inhibition at 1 µM: 47%
- inhibition at 10 µM: 24%
- inhibition at 100 µM: 61%

SMILES: O=C(COc1ccc(-n2cc(-c3ccccc3)nn2)cc1)NCC1CCOCC1 [Example 37, 2-(4-(4-phenyl-1H-1,2,3-triazol-1-yl)phenoxy)-N-((tetrahydro-2H-pyran-4-yl)methyl)acetamide]
- inhibition at 1 µM: 25%
- inhibition at 10 µM: 58%
- inhibition at 100 µM: 78%

SMILES: COc1cc(-c2ccc(OCC(=O)NCC3CCOCC3)cc2)nn1Cc1ccc(C(F)(F)F)cc1 [Example 38, 2-(4-(5-methoxy-1-(4-(trifluoromethyl)benzyl)-1H-pyrazol-3-yl)phenoxy)-N-((tetrahydro-2H-pyran-4-yl)methyl)acetamide]
- inhibition at 1 µM: 27%
- inhibition at 10 µM: 39%
- inhibition at 100 µM: 59%

SMILES: Cc1nc(-c2ccc(OCC(=O)NCC3CCOCC3)cc2)oc1C [Example 39, 2-(4-(4,5-dimethyloxazol-2-yl)phenoxy)-N-((tetrahydro-2H-pyran-4-yl)methyl)acetamide]
- inhibition at 10 µM: 9%
- inhibition at 100 µM: 15%
